Values quoted from earlier work as cited in patent publication US20050197327A1, “Compounds, compositions, and methods” (priority 2003, published 2005).

Test system: A549 cells
Conditions: data provided by National Cancer Institute

| SMILES | GI50 |
| --- | --- |
| NC(=O)NO [hydroxyurea] | 500000 nM |
| O=c1[nH]cc(F)c(=O)[nH]1 [5-fluorouracil] | 1000 nM |
| COc1cccc2c1C(=O)c1c(O)c3c(c(O)c1C2=O)C[C@@](O)(C(=O)CO)C[C@@H]3O[C@H]1C[C@H](N)[C@H](O)[C@H](C)O1 [doxorubicin] | 63 nM |
| CC(=O)O[C@H]1C(=O)[C@@]2(C)[C@H]([C@H](OC(=O)c3ccccc3)[C@]3(O)C[C@H](OC(=O)[C@H](O)[C@@H](NC(=O)c4ccccc4)c4ccccc4)C(C)=C1C3(C)C)[C@]1(OC(C)=O)CO[C@@H]1C[C@@H]2O [paclitaxel] | 4 nM |
